Results published in patent US12569509B2, “Method and composition for preventing and treating viral infections” (priority 2017, dated 2026).
“And” between values parts separate entries of the source, which are not always exact repeats. Equal entries are not always repeated. “Also recorded” adds a separate entry of the source.

Experiments:
human PBMC [1] = experiment: LPS stimulated cytokine secretion in human PBMC pretreated with compounds (Phase 2); format: cell-based; set-up: TNF-α concentration in supernatant / IL-1β concentration in supernatant / IL-6 concentration in supernatant / IL-2 concentration in supernatant / IFN-g concentration in supernatant: unit of the concentration uncertain; conditions: for IL-1β Mean Fold-Change (Relative to LPS alone) / IL-6 Mean Fold-Change (Relative to LPS alone) / TNF-α Mean Fold-Change (Relative to LPS alone): 1 ng/mL LPS stimulation for 8 hours, means from 3 donors; for IL-2 concentration in supernatant / TNF-α concentration in supernatant / IL-1β concentration in supernatant / IFN-g concentration in supernatant / IL-6 concentration in supernatant: 8-hour 1 ng/mL LPS stimulation; for IL-2 concentration in supernatant: LLOQ = 1.698 pg/mL; for TNF-α concentration in supernatant: LLOQ = 2.018 pg/mL; for IL-1β concentration in supernatant: LLOQ = 2.299 pg/mL; for IFN-g concentration in supernatant: LLOQ = 2.792 pg/mL; for IL-6 concentration in supernatant: LLOQ = 0.831
RecQ helicase = molecular target: T1, RecQ helicase (Escherichia coli, UniProt P15043); experiment: Cell-free fluorescence molecular beacon helicase assay; format: biochemical, E. coli; set-up: Average rate of reaction / Rate (Triplicate): unit: RFU/min; conditions: for Fluorescence at 35 minutes, Run 2 / Fluorescence at time 0, Run 2: duplicate, listed as H; for Average rate of reaction: mean of triplicate; for Rate (Triplicate): rate of reaction=(F0-F35)/35; for Change in helicase activity compared to the DMSO control: any of the tested concentrations (0.06-200 μg/mL)
T1 construct: a full-length E. coli helicase, RecQ, was used
T1 sequence (P15043 whole entry): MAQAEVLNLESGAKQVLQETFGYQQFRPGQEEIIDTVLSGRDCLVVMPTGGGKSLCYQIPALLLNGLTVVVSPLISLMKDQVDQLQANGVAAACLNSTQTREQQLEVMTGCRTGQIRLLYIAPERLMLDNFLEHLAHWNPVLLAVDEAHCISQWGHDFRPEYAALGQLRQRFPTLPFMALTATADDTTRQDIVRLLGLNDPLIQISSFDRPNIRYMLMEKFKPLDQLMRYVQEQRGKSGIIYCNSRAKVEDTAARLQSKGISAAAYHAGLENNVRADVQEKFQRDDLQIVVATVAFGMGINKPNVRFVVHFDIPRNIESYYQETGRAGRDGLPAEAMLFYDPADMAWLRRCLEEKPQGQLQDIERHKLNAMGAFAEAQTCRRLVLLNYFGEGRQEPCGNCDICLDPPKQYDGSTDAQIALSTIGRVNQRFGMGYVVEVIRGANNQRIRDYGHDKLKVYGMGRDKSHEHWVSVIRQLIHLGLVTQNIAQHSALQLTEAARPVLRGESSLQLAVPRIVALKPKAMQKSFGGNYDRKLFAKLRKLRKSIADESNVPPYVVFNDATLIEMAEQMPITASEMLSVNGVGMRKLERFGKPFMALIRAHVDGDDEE

human PBMC [2] = experiment: Test compound induced cytokine secretion in human PBMC without LPS, 10 or 26 hours (Phase 1); conditions: 100 μM, 26 hours, no LPS
Procedure: Secretion of the cytokines TNF-α (A), IL-1β (B) and IL-6 (C) were measured in supernatant of PBMC cultured in the presence of test compounds using a Luminex platform with the Milliplex MAP Human High Sensitivity T Cell Panel Immunology Multiplex Assay. Results are represented as a mean from 3 separate donors in pg/mL.
Whole blood was collected from 3 human donors and peripheral blood mononuclear cells (PBMC) were isolated using the Ficoll-Paque density gradient method. PBMC were then plated and left untouched for 2 hours to account for a 2 hours pretreatement period (see below for details), and incubated for 8 or 24 hours in a humidified incubator set to maintain 37° C. with 5% CO2, with different concentrations of LPS as per Table 11 in order to determine the optimal stimulation conditions to detect cytokine release. […] RPMI medium alone or supplemented with 0.1% DMSO (to mimic treatment conditions) were used as negative controls.
At the end of the incubation period, supernatant samples were recovered and stored at −80° C. until analysis (in duplicate) using a Luminex platform with the Milliplex MAP Human High Sensitivity T Cell Panel Immunology Multiplex Assay (Cat. No. HSTCMAG-28SK) with the following selected cytokines of interest: IL-1, IL-2, IL-6, IFN-g and TNF-α. Each assay was defined by one calibration curve and 2 sets of QCs and the results were expressed as pg/mL.

[3] = TA 0.06 μg/mL (plate column 4, wells A-C)
[4] = TA 0.2 μg/mL (plate column 5, wells A-C)
[5] = TA 0.6 μg/mL (plate column 6, wells A-C)
[6] = TA 2 μg/mL (plate column 7, wells A-C)
[7] = TA 6 μg/mL (plate column 8, wells A-C)
[8] = TA 60 μg/mL (plate column 10, wells A-C)
[9] = TA 200 + Buffer (plate column 12, wells A-C)

COc1ccc([C@@H]2CC(=O)c3c(O)cc(O[C@@H]4O[C@H](CO[C@@H]5O[C@@H](C)[C@H](O)[C@@H](O)[C@H]5O)[C@@H](O)[C@H](O)[C@H]4O)cc3O2)cc1O [Hesperidin]
IL-1β Mean Fold-Change (Relative to LPS alone) (human PBMC [1]; 10 mM (so in the source)): 1.14 | IL-6 Mean Fold-Change (Relative to LPS alone) (human PBMC [1]; 10 mM (so in the source)): 1.10 | TNF-α Mean Fold-Change (Relative to LPS alone) (human PBMC [1]; 10 mM (so in the source)): 0.98 | IL-1β Mean Fold-Change (Relative to LPS alone) (human PBMC [1]; 100 mM (so in the source)): 1.30 | IL-6 Mean Fold-Change (Relative to LPS alone) (human PBMC [1]; 100 mM (so in the source)): 1.24 | TNF-α Mean Fold-Change (Relative to LPS alone) (human PBMC [1]; 100 mM (so in the source)): 1.20 | Effect on LPS stimulated secretion of IL-1b (human PBMC [1]; 200 mM (so in the source), 2 h pretreatment, 1 ng/mL LPS 8 hours): increase; also recorded: appeared to enhance; also recorded: potentiate | IL-1β Mean Fold-Change (Relative to LPS alone) (human PBMC [1]; 200 mM (so in the source)): 1.54 | IL-6 Mean Fold-Change (Relative to LPS alone) (human PBMC [1]; 200 mM (so in the source)): 1.25 | TNF-α Mean Fold-Change (Relative to LPS alone) (human PBMC [1]; 200 mM (so in the source)): 1.14 | IL-2 concentration in supernatant (human PBMC [1]; Donor 1, 10 (unit uncertain)): <LLOQ | TNF-α concentration in supernatant (human PBMC [1]; Donor 1, 10 (unit uncertain)): 1889.91 pg/mL | IL-1β concentration in supernatant (human PBMC [1]; Donor 1, 10 (unit uncertain)): 3059.18 pg/mL | IFN-g concentration in supernatant (human PBMC [1]; Donor 1, 10 (unit uncertain)): <LLOQ | IL-6 concentration in supernatant (human PBMC [1]; Donor 1, 10 (unit uncertain)): 1099.07 pg/mL | IL-2 concentration in supernatant (human PBMC [1]; Donor 1, 100 (unit uncertain)): <LLOQ | TNF-α concentration in supernatant (human PBMC [1]; Donor 1, 100 (unit uncertain)): 2577.7 pg/mL | IL-1β concentration in supernatant (human PBMC [1]; Donor 1, 100 (unit uncertain)): 3955.41 pg/mL | IFN-g concentration in supernatant (human PBMC [1]; Donor 1, 100 (unit uncertain)): <LLOQ | IL-6 concentration in supernatant (human PBMC [1]; Donor 1, 100 (unit uncertain)): 1441.95 pg/mL | IL-2 concentration in supernatant (human PBMC [1]; Donor 1, 200 (unit uncertain)): <LLOQ | TNF-α concentration in supernatant (human PBMC [1]; Donor 1, 200 (unit uncertain)): 2290.76 pg/mL | IL-1β concentration in supernatant (human PBMC [1]; Donor 1, 200 (unit uncertain)): 4853.62 pg/mL | IFN-g concentration in supernatant (human PBMC [1]; Donor 1, 200 (unit uncertain)): <LLOQ | IL-6 concentration in supernatant (human PBMC [1]; Donor 1, 200 (unit uncertain)): 1485.45 pg/mL | IL-2 concentration in supernatant (human PBMC [1]; Donor 2, 10 (unit uncertain)): <LLOQ | TNF-α concentration in supernatant (human PBMC [1]; Donor 2, 10 (unit uncertain)): 1091.56 pg/mL | IL-1β concentration in supernatant (human PBMC [1]; Donor 2, 10 (unit uncertain)): 2855.56 pg/mL | IFN-g concentration in supernatant (human PBMC [1]; Donor 2, 10 (unit uncertain)): <LLOQ | IL-2 concentration in supernatant (human PBMC [1]; Donor 2, 100 (unit uncertain)): <LLOQ | TNF-α concentration in supernatant (human PBMC [1]; Donor 2, 100 (unit uncertain)): 1254.84 pg/mL | IL-1β concentration in supernatant (human PBMC [1]; Donor 2, 100 (unit uncertain)): 2344.12 pg/mL | IFN-g concentration in supernatant (human PBMC [1]; Donor 2, 100 (unit uncertain)): <LLOQ | IL-2 concentration in supernatant (human PBMC [1]; Donor 2, 200 (unit uncertain)): <LLOQ | TNF-α concentration in supernatant (human PBMC [1]; Donor 2, 200 (unit uncertain)): 1621.58 pg/mL | IL-1β concentration in supernatant (human PBMC [1]; Donor 2, 200 (unit uncertain)): 3244.42 pg/mL | IFN-g concentration in supernatant (human PBMC [1]; Donor 2, 200 (unit uncertain)): <LLOQ | IL-2 concentration in supernatant (human PBMC [1]; Donor 3, 10 (unit uncertain)): <LLOQ | TNF-α concentration in supernatant (human PBMC [1]; Donor 3, 10 (unit uncertain)): 3632.86 pg/mL | IL-1β concentration in supernatant (human PBMC [1]; Donor 3, 10 (unit uncertain)): 3800.6 pg/mL | IFN-g concentration in supernatant (human PBMC [1]; Donor 3, 10 (unit uncertain)): <LLOQ | IL-2 concentration in supernatant (human PBMC [1]; Donor 3, 100 (unit uncertain)): <LLOQ | TNF-α concentration in supernatant (human PBMC [1]; Donor 3, 100 (unit uncertain)): 3808.52 pg/mL | IL-1β concentration in supernatant (human PBMC [1]; Donor 3, 100 (unit uncertain)): 4941.84 pg/mL | IFN-g concentration in supernatant (human PBMC [1]; Donor 3, 100 (unit uncertain)): <LLOQ | IL-2 concentration in supernatant (human PBMC [1]; Donor 3, 200 (unit uncertain)): <LLOQ | TNF-α concentration in supernatant (human PBMC [1]; Donor 3, 200 (unit uncertain)): 2731.72 pg/mL | IL-1β concentration in supernatant (human PBMC [1]; Donor 3, 200 (unit uncertain)): 4883.06 pg/mL | IFN-g concentration in supernatant (human PBMC [1]; Donor 3, 200 (unit uncertain)): <LLOQ | Fluorescence at 35 minutes, Run 2 (RecQ helicase; 0.06 μg/mL): 2987 RFU and 3023 RFU | Fluorescence at time 0, Run 2 (RecQ helicase; 0.06 μg/mL): 5870 RFU and 7788 RFU | Average rate of reaction (RecQ helicase; 0.06 μg/mL): 61.47 | Average rate of reaction (RecQ helicase; 0.2 μg/mL): 53.5 | Rate (Triplicate) (RecQ helicase; 0.2 μg/mL): 47.51 and 71.4 and 41.6 | Fluorescence at 35 minutes, Run 2 (RecQ helicase; 0.6 μg/mL): 2677 RFU and 2621 RFU | Fluorescence at time 0, Run 2 (RecQ helicase; 0.6 μg/mL): 9523 RFU and 7721 RFU | Average rate of reaction (RecQ helicase; 0.6 μg/mL): 107.9714 | Fluorescence at 35 minutes, Run 2 (RecQ helicase; 2 μg/mL): 2624 RFU and 2801 RFU | Average rate of reaction (RecQ helicase; 2.0 μg/mL): 110.1429 | Rate (Triplicate) (RecQ helicase; 2.0 μg/mL): 108.1714 and 140.8 and 81.46 | Fluorescence at 35 minutes, Run 2 (RecQ helicase; 6 μg/mL): 2526 RFU and 2818 RFU | Fluorescence at time 0, Run 2 (RecQ helicase; 6 μg/mL): 8127 RFU and 9570 RFU | Average rate of reaction (RecQ helicase; 6.0 μg/mL): 169.7048 | Fluorescence at 35 minutes, Run 2 (RecQ helicase; 20 μg/mL): 3653 RFU and 3927 RFU | Fluorescence at time 0, Run 2 (RecQ helicase; 20 μg/mL): 4464 RFU and 8870 RFU | Average rate of reaction (RecQ helicase; 20.0 μg/mL): 55.09 | Fluorescence at 35 minutes, Run 2 (RecQ helicase; 60 μg/mL): 4250 RFU and 4180 RFU | Fluorescence at time 0, Run 2 (RecQ helicase; 60 μg/mL): 4134 RFU and 3133 RFU | Average rate of reaction (RecQ helicase; 60.0 μg/mL): 58.1 | Fluorescence at 35 minutes, Run 2 (RecQ helicase; 200 μg/mL): 3913 RFU and 4063 RFU | Average rate of reaction (RecQ helicase; 200.0 μg/mL): 90.4381 | Fluorescence at 0:00:00, Run 1 (RecQ helicase; [3]): 5759 RFU and 9125 RFU and 10456 RFU | Fluorescence at 0:35:00, Run 1 (RecQ helicase; [3]): 5467 RFU and 6877 RFU and 6542 RFU | Fluorescence at 0:00:00, Run 1 (RecQ helicase; [4]): 7735 RFU and 8642 RFU and 7853 RFU | Fluorescence at 0:35:00, Run 1 (RecQ helicase; [4]): 6072 RFU and 6143 RFU and 6397 RFU | Fluorescence at 0:00:00, Run 1 (RecQ helicase; [5]): 7559 RFU and 14137 RFU and 7347 RFU | Fluorescence at 0:35:00, Run 1 (RecQ helicase; [5]): 5304 RFU and 6502 RFU and 5900 RFU | Fluorescence at 0:00:00, Run 1 (RecQ helicase; [6]): 10359 RFU and 11454 RFU and 8360 RFU | Fluorescence at 0:35:00, Run 1 (RecQ helicase; [6]): 6573 RFU and 6526 RFU and 5509 RFU | Fluorescence at 0:00:00, Run 1 (RecQ helicase; [7]): 10222 RFU and 10590 RFU and 17264 RFU | Fluorescence at 0:35:00, Run 1 (RecQ helicase; [7]): 6164 RFU and 5213 RFU and 8880 RFU | Fluorescence at 0:00:00, Run 1 (RecQ helicase; [8]): 10452 RFU and 7252 RFU and 7210 RFU | Fluorescence at 0:35:00, Run 1 (RecQ helicase; [8]): 7008 RFU and 6217 RFU and 5588 RFU | Fluorescence at 0:35:00, Run 1 (RecQ helicase; TA 200 μg/mL (plate column 11, wells A-C)): 7231 RFU and 6648 RFU and 7799 RFU | Fluorescence at 0:00:00, Run 1 (RecQ helicase; [9]): 10477 RFU and 15660 RFU and 9770 RFU | Fluorescence at 0:35:00, Run 1 (RecQ helicase; [9]): 9155 RFU and 9497 RFU and 7774 RFU | Change in helicase activity compared to the DMSO control (RecQ helicase): no observed clear change | Change in helicase activity compared to the DMSO control (RecQ helicase; listed as hesperidin): no effect | Secretion of IL-1β and IL-6, compound alone (human PBMC [2]): in one donor, secretion of IL-1β, and IL-6 was also observed
